Laboratory results: patent US20200131196A1 (Mount Tam Therapeutics, Inc., priority 2017, published 2020)
Blank lines part the entries; values can stand above or below the molecule they belong to.

Experiments:
Hs 852.T = assay: OncoPanel cell proliferation assay, Hs 852.T; type: cell-based, human; details: for GI50: read-out: Cell Count GI50
Procedure: (§1) Cells were grown in RPMI 1640, 10% FBS, 2 mM L-alanyl-L-glutamine, 1 mM Na pyruvate, or a special medium. Cells were seeded into 384-well plates and incubated in a humidified atmosphere of 5% CO2 at 37° C. Compounds were added the day following cell seeding. At the same time, a time zero untreated cell plate was generated. After a 3-day incubation period, cells were fixed and stained to allow fluorescence imaging of nuclei. Compounds (1 mM stock solutions) were serially diluted in half-log steps from the highest test concentration ([…]), and assayed over 10 concentrations with a maximum assay concentration of 0.1% DMSO. Automated fluorescence microscopy was carried out using a Molecular Devices ImageXpress Micro XL high-content imager, and images were collected with a 4× objective. 16-bit TIFF images were acquired and analyzed with MetaXpress 5.1.0.41 software.
(§2) Cell proliferation was measured by the fluorescence intensity of an incorporated nuclear dye. The output is referred to as the relative cell count, where the measured nuclear intensity is transformed to percent of control (POC) using the following formula: […]
(§3) Cellular response parameters were calculated using nonlinear regression to a sigmoidal single-site dose response model:
(§4) EC50 is the test compound concentration at the curve inflection point or half the effective response (parameter C of the fitted curve solution). GI50 is the concentration needed to reduce the observed growth by half (midway between the curve maximum and the time zero value). “Cell Count Activity Area” is an estimate of the integrated area above the curve (Barretina, et al. The Cancer Cell Line Encyclopedia enables predictive modelling of anticancer drug sensitivity. Nature 483: 603-607). […] In rare instances, values <0 or >10 may be observed. […] Curve-fitting, calculations, and report generation was performed using a custom data reduction engine and MathIQ based software (AIM).

CRO-AP2 = assay: OncoPanel cell proliferation assay, CRO-AP2; type: cell-based, human; details: for GI50: read-out: Cell Count GI50
Procedure: as §1, §2, §3, §4

CaOV3 = assay: OncoPanel cell proliferation assay, CaOV3; type: cell-based, human; details: for GI50: Caov-3, read-out: Cell Count GI50
Procedure: as §1, §2, §3, §4

DMS114 = assay: OncoPanel cell proliferation assay, DMS114; type: cell-based, human; details: for EC50: DMS-114, read-out: Cell Count EC50; for GI50: DMS-114, read-out: Cell Count GI50
Procedure: as §1, with “Cells” for “Cells were grown in RPMI 1640, 10% FBS, 2 mM L-alanyl-L-glutamine, 1 mM Na pyruvate, or a special medium. Cells”
as §2, §3
(§5) GI50 is the concentration needed to reduce the observed growth by half (midway between the curve maximum and the time zero value). […] In rare instances, values <0 or >10 may be observed. […] Curve-fitting, calculations, and report generation was performed using a custom data reduction engine and MathIQ based software (AIM).

RL95-2 = assay: OncoPanel cell proliferation assay, RL95-2; type: cell-based, human; details: for GI50: read-out: Cell Count GI50
Procedure: as §1, §2, §3, §4

SK-N-AS = assay: OncoPanel cell proliferation assay, SK-N-AS; type: cell-based, human; details: for EC50: read-out: Cell Count EC50; for GI50: read-out: Cell Count GI50
Procedure: as §1, §2, §3, §4

SCaBER = assay: OncoPanel cell proliferation assay, SCaBER; type: cell-based, human; details: for GI50: read-out: Cell Count GI50
Procedure: as §1, §2, §3, §4

SNU-C2B = assay: OncoPanel cell proliferation assay, SNU-C2B; type: cell-based, human; details: for EC50: read-out: Cell Count EC50; for GI50: read-out: Cell Count GI50
Procedure: as §1, §2, §3, §4

SNU-5 = assay: OncoPanel cell proliferation assay, SNU-5; type: cell-based, human; details: for EC50: read-out: Cell Count EC50; for GI50: read-out: Cell Count GI50
Procedure: as §1, with “Cells” for “Cells were grown in RPMI 1640, 10% FBS, 2 mM L-alanyl-L-glutamine, 1 mM Na pyruvate, or a special medium. Cells”
as §2, §3, §5

TF-1 = assay: OncoPanel cell proliferation assay, TF-1; type: cell-based, human; details: for GI50: read-out: Cell Count GI50; for IC50: read-out: Cell Count IC50
Procedure: as §1, §2, §3, §4

U2OS = assay: OncoPanel cell proliferation assay, U2OS; type: cell-based, human; details: for GI50: read-out: Cell Count GI50
Procedure: as §1, with “Cells” for “Cells were grown in RPMI 1640, 10% FBS, 2 mM L-alanyl-L-glutamine, 1 mM Na pyruvate, or a special medium. Cells”
as §2, §3, §5

U-87 MG = assay: OncoPanel cell proliferation assay, U-87 MG; type: cell-based, human; details: for GI50: read-out: Cell Count GI50
Procedure: as §1, §2, §3, §4

AsPC-1 = assay: OncoPanel cell proliferation assay, AsPC-1; details: for Cell Count Activity Area: AsPC-1
Procedure: Cells were seeded into 384-well plates and incubated in a humidified atmosphere of 5% CO2 at 37° C. Compounds were added the day following cell seeding. At the same time, a time zero untreated cell plate was generated. After a 3-day incubation period, cells were fixed and stained to allow fluorescence imaging of nuclei. Compounds (1 mM stock solutions) were serially diluted in half-log steps from the highest test concentration (1 micromol), and assayed over 10 concentrations with a maximum assay concentration of 0.1% DMSO. Automated fluorescence microscopy was carried out using a Molecular Devices ImageXpress Micro XL high-content imager, and images were collected with a 4× objective. 16-bit TIFF images were acquired and analyzed with MetaXpress 5.1.0.41 software.

[1] = Homo sapiens, read-out: Cell Count EC50
[2] = Homo sapiens, read-out: Cell Count IC50

EC50 (SK-N-AS; Homo sapiens): 0.231 nM
GI50 (SK-N-AS; Homo sapiens): 0.432 nM
IC50 (SK-N-AS; [2]): > 1000 nM
EC50 (SNU-C2B; Homo sapiens): > 1000 nM
GI50 (SNU-C2B; Homo sapiens): > 1000 nM
IC50 (SNU-C2B; [2]): > 1000 nM
EC50 (SNU-5; Homo sapiens): 0.885 nM
GI50 (SNU-5; Homo sapiens): 24 nM
IC50 (SNU-5; [2]): > 1000 nM
EC50 (U2OS; [1]): 0.65 nM
GI50 (U2OS; Homo sapiens): 2.54 nM
IC50 (U2OS; [2]): > 1000 nM
EC50 (U-87 MG; [1]): 0.104 nM
GI50 (U-87 MG; Homo sapiens): 0.384 nM
IC50 (U-87 MG; [2]): > 1000 nM
EC50 (AsPC-1; Homo sapiens, ASPC1, read-out: Cell Count EC50): > 1000 nM
GI50 (AsPC-1; Homo sapiens, ASPC1, read-out: Cell Count GI50): > 1000 nM
IC50 (AsPC-1; Homo sapiens, ASPC1, read-out: Cell Count IC50): > 1000 nM
Structure (SMILES): CO[C@H]1C[C@@H]2CC[C@@H](C)[C@@](O)(O2)C(=O)C(=O)N2CCCC[C@H]2C(=O)O[C@H]([C@H](C)C[C@@H]2CC[C@@H](O)[C@H](OC)C2)CC(=O)[C@H](C)/C=C(\C)[C@@H](O)[C@@H](OC)C(=O)[C@H](C)C[C@H](C)/C=C/C=C/C=C/1C [Rapamycin, reference compound]
Cell Count Activity Area (Hs 852.T): 1.43
EC50 (Hs 852.T; [1]): > 1000 nM
GI50 (Hs 852.T; Homo sapiens): > 1000 nM
IC50 (Hs 852.T; [2]): > 1000 nM
Cell Count Activity Area (CRO-AP2): 6.22
EC50 (CRO-AP2; [1]): 0.119 nM
GI50 (CRO-AP2; Homo sapiens): 0.155 nM
IC50 (CRO-AP2; [2]): 0.187 nM
Cell Count Activity Area (CaOV3): 2.40
EC50 (CaOV3; Homo sapiens, Caov-3, read-out: Cell Count EC50): > 1000 nM
GI50 (CaOV3; Homo sapiens): > 1000 nM
IC50 (CaOV3; Homo sapiens, Caov-3, read-out: Cell Count IC50): > 1000 nM
Cell Count Activity Area (DMS114): 4.14
EC50 (DMS114; Homo sapiens): 0.0747 nM
GI50 (DMS114; Homo sapiens): 0.0478 nM
IC50 (DMS114; Homo sapiens, DMS-114, read-out: Cell Count IC50): > 1000 nM
Cell Count Activity Area (RL95-2): 4.24
EC50 (RL95-2; [1]): 0.0705 nM
GI50 (RL95-2; Homo sapiens): 0.13 nM
IC50 (RL95-2; [2]): > 1000 nM
Cell Count Activity Area (SK-N-AS): 3.58
Cell Count Activity Area (SCaBER): 5.25
EC50 (SCaBER; [1]): 0.0377 nM
GI50 (SCaBER; Homo sapiens): 0.158 nM
IC50 (SCaBER; [2]): 0.321 nM
Cell Count Activity Area (SNU-C2B): 1.99
Cell Count Activity Area (TF-1): 1.52
EC50 (TF-1; [1]): > 1000 nM
GI50 (TF-1; Homo sapiens): > 1000 nM
IC50 (TF-1; Homo sapiens): > 1000 nM
Cell Count Activity Area (U2OS): 3.04
Cell Count Activity Area (U-87 MG): 3.79
Cell Count Activity Area (AsPC-1): 1.48

Structure (SMILES): CN[C@@H]1C[C@H]2O[C@@](C)([C@@H]1OC)n1c3ccccc3c3c4c(c5c6ccccc6n2c5c31)C(=O)NC4 [Staurosporine, reference compound]
Cell Count Activity Area (Hs 852.T): 3.16
GI50 (Hs 852.T; Homo sapiens): 1.35 nM
Cell Count Activity Area (CRO-AP2): 3.99
GI50 (CRO-AP2; Homo sapiens): 13.2 nM
Cell Count Activity Area (CaOV3): 5.31
GI50 (CaOV3; Homo sapiens): 0.273 nM
EC50 (DMS114; Homo sapiens): 21 nM
GI50 (DMS114; Homo sapiens): 3.35 nM
Cell Count Activity Area (RL95-2): 3.87
GI50 (RL95-2; Homo sapiens): 6.83 nM
Cell Count Activity Area (SK-N-AS): 4.83
EC50 (SK-N-AS; Homo sapiens): 1.7 nM
GI50 (SK-N-AS; Homo sapiens): 1.27 nM
Cell Count Activity Area (SCaBER): 6.03
GI50 (SCaBER; Homo sapiens): 0.474 nM
Cell Count Activity Area (SNU-C2B): 3.80
EC50 (SNU-C2B; Homo sapiens): 15.8 nM
GI50 (SNU-C2B; Homo sapiens): 4.97 nM
Cell Count Activity Area (SNU-5): 2.58
EC50 (SNU-5; Homo sapiens): 6.44 nM
GI50 (SNU-5; Homo sapiens): 10.3 nM
Cell Count Activity Area (TF-1): 3.31
GI50 (TF-1; Homo sapiens): 10.9 nM
IC50 (TF-1; Homo sapiens): 11.9 nM
GI50 (U2OS; Homo sapiens): 2.63 nM
Cell Count Activity Area (U-87 MG): 3.25
GI50 (U-87 MG; Homo sapiens): 0.836 nM
Cell Count Activity Area (AsPC-1): 3.28
